Where a name gives a salt, the structure may show the parent alone.
Tests used:
[1] = test system: S. aureus 8325 or strain ATCC 29213; assay: MIC determination by microbroth dilution; assay type: cell-based, Staphylococcus aureus; details: Staphylococcus aureus, ATCC29213; S. aureus 8325 or strain ATCC 29213 (for 1471-1544)
E. coli K12 = assay: MIC determination by microbroth dilution; assay type: cell-based, Escherichia coli; details: Escherichia coli, K12
E. coli K12 ΔtolC = assay: microbe, parasite or virus in culture; assay type: cell-based; details: Escherichia coli, read-out: MIC E. coli K12 ΔtolC
[2] = test system: Strep. pyogenes ATCC 700294; assay: MIC determination by microbroth dilution; assay type: cell-based, Streptococcus pyogenes; details: Streptococcus pyogenes, ATCC700294, read-out: MIC S. pyogenes
[3] = test system: Strep. pneumoniae DAW27 or strain R6; assay: MIC determination by microbroth dilution; assay type: cell-based, Streptococcus pneumoniae; details: Streptococcus pneumoniae; Strep. pneumoniae DAW27 or strain R6 (for 1443-1544); read-out: MIC S. pneumoniae
E. faecalis ATCC 33186 = assay: MIC determination by microbroth dilution; assay type: cell-based, Enterococcus faecalis; details: Enterococcus faecalis, ATCC33186
P. aeruginosa PAO1 = assay: MIC determination by microbroth dilution; assay type: cell-based, Pseudomonas aeruginosa; details: Pseudomonas aeruginosa
[4] = test system: Proteus mirabilis ATCC 25933; assay: MIC determination by microbroth dilution; assay type: cell-based; details: ATCC25933
[5] = test system: Proteus vulgaris ATCC 33420; assay: MIC determination by microbroth dilution; assay type: cell-based; details: ATCC33420
[6] = test system: Acinetobacter baumannii ATCC 19606; assay: MIC determination by microbroth dilution; assay type: cell-based; details: ATCC19606
[7] = test system: Strenotrophomonas maltophilia ATCC 13637; assay: MIC determination by microbroth dilution; assay type: cell-based
[8] = test system: Burkholderia cepacia ATCC 25416; assay: MIC determination by microbroth dilution; assay type: cell-based; details: ATCC25416, read-out: MIC B. cepcia
M. tuberculosis H37Rv = assay: MIC determination by microbroth dilution, anti-tuberculosis activity; assay type: cell-based, Mycobacterium tuberculosis; details: Mycobacterium tuberculosis, H37RV, 168 h; read-out: MIC
B. anthracis Sterne 34F2 = assay: microbe, parasite or virus in culture; assay type: cell-based, Bacillus anthracis; details: Bacillus anthracis, STERNE34F2, read-out: MIC B. anthracis 34F2
[9] = test system: Klebsiella pneumoniae ATCC 33495; assay: MIC determination by microbroth dilution; assay type: cell-based; details: ATCC33495

Row | SMILES | MIC [1] [µg/mL] | MIC (E. coli K12) [µg/mL] | MIC (E. coli K12 ΔtolC) [µg/mL] | MIC [2] [µg/mL] | MIC [3] [µg/mL] | MIC (E. faecalis ATCC 33186) [µg/mL] | MIC (P. aeruginosa PAO1) [µg/mL] | MIC [4] [µg/mL] | MIC [5] [µg/mL] | MIC [6] [µg/mL] | MIC [7] [µg/mL] | MIC [8] [µg/mL] | MIC (M. tuberculosis H37Rv) [µg/mL] | MIC (B. anthracis Sterne 34F2) [µg/mL] | MIC [9] [µg/mL]
1 | CN[C@@H]1[C@H](O)[C@H](NC)C2O[C@]3(O)C(OC2[C@H]1O)O[C@H](C)C[C@H]3NC(=O)Cc1ccc(C)cc1 (stereo partly drawn) [Compound 1399, 3′-Dihydro-3′-deoxy-4(R)-p-tolylacetylamino spectinomycin Dihydrochloride] | 50 | > 200 | 100 | 25 | 25 | 200 | 100 | > 200 | > 200 | > 200 | > 200 | > 200 | 6.1 | 100 | > 200
2 | CN[C@@H]1[C@H](O)[C@H](NC)C2O[C@]3(O)C(OC2[C@H]1O)O[C@H](C)C[C@H]3NC(=O)Cc1cccc(OC)c1 (stereo partly drawn) [Compound 1400, 3′-Dihydro-3′-deoxy-4(R)-(3-methoxy-phenyl)acetylamino spectinomycin Dihydrochloride] | > 200 | > 200 | > 200 | > 200 | 100 | 100 | 100 | > 200 | > 200 | > 200 | > 200 | > 200 | 12.5 | 200 | > 200
3 | CN[C@@H]1[C@H](O)[C@H](NC)C2O[C@]3(O)C(OC2[C@H]1O)O[C@H](C)C[C@H]3NC(=O)Cc1cccc(C)c1 (stereo partly drawn) [Compound 1412, 3′-Dihydro-3′-deoxy-4(R)-m-tolylacetylamino spectinomycin Dihydrochloride] | 50 | > 200 | 200 | 25 | 25 | 200 | 100 | > 200 | > 200 | > 200 | > 200 | > 200 | 25 | 100 | > 200
4 | CN[C@@H]1[C@H](O)[C@H](NC)C2O[C@]3(O)C(OC2[C@H]1O)O[C@H](C)C[C@H]3NCC1CC1 (stereo partly drawn) [Compound 1419, 3′-Dihydro-3′-deoxy-4(R)-cyclopropylmethylamino spectinomycin Trihydrochloride] | 100 | 100 | 25 | 50 | 100 | 200 | > 200 | > 200 | > 200 | > 200 | > 200 | > 200 | 50 | 50 | > 200
5 | CN[C@@H]1[C@H](O)[C@H](NC)C2O[C@]3(O)C(OC2[C@H]1O)O[C@H](C)C[C@H]3NC(=O)Cc1cccnn1 (stereo partly drawn) [Compound 1449, 3′-Dihydro-3′-deoxy-4(R)-(pyridazin-3-yl)acetylamino spectinomycin tetra hydrobromide] | > 200 | > 200 | 100 | 200 | 25 | > 200 | > 200 | > 200 | > 200 | > 200 | > 200 | > 200 | 25 | > 200 | > 200
6 | CN[C@@H]1[C@H](O)[C@H](NC)C2O[C@]3(O)C(OC2[C@H]1O)O[C@H](C)C[C@H]3NCCc1ccccc1 (stereo partly drawn) [Compound 1450, 3′-Dihydro-3′-deoxy-4(R)-2-phenylethylamino spectinomycin Trihydrochloride] |  |  |  |  |  |  |  |  |  |  |  |  | 200 |  | 
7 | CN[C@@H]1[C@H](O)[C@H](NC)C2O[C@]3(O)C(OC2[C@H]1O)O[C@H](C)C[C@H]3NC(=O)[C@H](C)N (stereo partly drawn) [Compound 1467, 3′-Dihydro-3′-deoxy-4(R)-[2(S)-amino]propanoylamino spectinomycin Trihydrochloride] | > 200 | 200 | 200 | 50 | 50 | > 200 | > 200 | 200 | > 200 | > 200 | 100 | > 200 | 200 | > 200 | > 200
8 | CN[C@@H]1[C@H](O)[C@H](NC)C2O[C@]3(O)C(OC2[C@H]1O)O[C@H](C)C[C@H]3NC(=O)CCN (stereo partly drawn) [Compound 1469, 3′-Dihydro-3′-deoxy-4(R)-(3-amino)propanoylamino spectinomycin Trihydrochloride] | > 200 | > 200 | 100 | 100 | 50 | 50 | > 200 | > 200 | > 200 | > 200 | 25 | > 200 | 200 | 50 | > 200
9 | CN[C@@H]1[C@H](O)[C@H](NC)C2O[C@]3(O)C(OC2[C@H]1O)O[C@H](C)C[C@H]3NC(=O)CN (stereo partly drawn) [Compound 1470, 3′-Dihydro-3′-deoxy-4(R)-(2-amino)acetylamino spectinomycin Trihydrochloride] | > 200 | > 200 | > 200 | > 200 | > 200 | > 200 | > 200 | > 200 | > 200 | > 200 | > 200 | > 200 | 200 | > 200 | > 200
10 | CC[C@H](C)[C@H](N)C(=O)N[C@@H]1C[C@@H](C)OC2OC3C(O[C@]21O)[C@@H](NC)[C@@H](O)[C@@H](NC)[C@@H]3O (stereo partly drawn) [Compound 1485, 3′-Dihydro-3′-deoxy-4(R)-[(2S,3S)-2-amino,3-methyl]pentanoylamino spectinomycin Trihydrochloride] | > 200 |  | > 200 | 25 | 25 | > 200 | > 200 | > 200 | > 200 | > 200 | > 200 | > 200 | 200 | > 200 | > 200
11 | CN[C@@H]1[C@H](O)[C@H](NC)C2O[C@]3(O)C(OC2[C@H]1O)O[C@H](C)C[C@H]3NC(=O)[C@@H](N)C(C)C (stereo partly drawn) [Compound 1486, 3′-Dihydro-3′-deoxy-4(R)-[2(S)-amino,3-methyl]butanoylamino spectinomycin Trihydrochloride] | > 200 |  | > 200 | 50 | > 200 | > 200 | > 200 | > 200 | > 200 | > 200 | > 200 | > 200 | 200 | > 200 | > 200
12 | CN[C@@H]1[C@H](O)[C@H](NC)C2O[C@]3(O)C(OC2[C@H]1O)O[C@H](C)C[C@H]3NC(=O)C[C@@H](N)c1ccc(F)cc1 (stereo partly drawn) [Compound 1487, 3′-Dihydro-3′-deoxy-4(R)-[3(R)-amino,3-(4-fluorophenyl)]propanoylamino spectinomycin Trihydrochloride] | > 200 | 200 | 200 | 50 | 12.5 | > 200 | > 200 | > 200 | > 200 | > 200 | > 200 | > 200 | 200 | > 200 | > 200

From patent publication US9284325B2, “Spectinamides as anti-tuberculosis agents” (UNIVERSITY OF TENNESSEE RESEARCH FOUNDATION, priority 2009, dated 2016)
